Read-outs that look alike come from different tables or passages of the source.
Assays:
HCT-116 cells [1] = test: MTS cytotoxicity assay, HCT-116; conditions: for IC50: read-out: IC50 (μM) HCT-116; for selectivity: ratio of cytotoxicity against 293T cells over cytotoxicity against HCT-116 cells
Procedure: (§3) HCT-116 cells were cultured in McCoy's 5a Modified Medium (Gibco, USA). […] Both media contain 10% fetal bovine serum (Gibco, USA) and 1% penicillin–streptomycin (Gibco, USA). Cells were maintained in incubator (Thermo Fisher, USA) supplied with 5% CO2 at 37°C. Only cells in logarithmic phase were used in all following experiments.
(§4) In brief, cells were seeded into 96-well plate (Corning, USA) with a density of 3000 cells/well for 24 h, and then treated with tested compounds at various concentrations for 72 h.

293T cells = test: MTS cytotoxicity assay, 293T (model of normal cells); conditions: read-out: IC50 (μM) 293T
Procedure: as §3, §4

HCT-116 cells [2] = test: Hoechst 33258 staining; type: cell-based, human; conditions: 5 µM, 48 or 72 h
Procedure: (§1) Next, the type of cell death induced by compound 8d was investigated. […] Annexin V/PI staining assay were carried out to analyse the apoptotic rate of HCT-116 cells.
HCT-116 cells were seeded in coverslips for 24 h, and then compound 8d was incubated at a concentration of 5 µM for 48 or 72 h. Cells were incubated with Hoechst 33258 (Sigma, USA) in the dark at room temperature for 30 min after being fixed with 4% paraformaldehyde. The nuclear morphology of apoptosis was observed by fluorescence microscope (Olympus, Japan).

HCT-116 cells [3] = test: Annexin V/PI double staining, flow cytometry; type: cell-based, human; conditions: 2.5 and 5 µM
Procedure: as §1
Cells were seeded in 6-well plates with a density of 5 × 10^5 cells per well and then treated with various concentrations of compound 8d (0 µM, 2.5 µM and 5 µM) for 48 h. Cells were collected and stained with annexin V and PI for 20 min, and then detected by flow cytometer (BD, USA) to analyse the apoptotic cell distribution. Living cells (annexin V^−/PI^−), early apoptotic cells (annexin V^+/PI^−), late apoptotic cells (annexin V^+/PI^+) and necrotic cells (annexin V^−/PI^+) were calculated in the Cell Quest software (BD, USA).

HCT-116 cells [4] = test: Colony formation assay; type: cell-based, human; conditions: pre-treatment 24 h with various concentrations, 9 days culture after withdrawal
Procedure: (§2) Thus, it was further studied to understand its underlying antiproliferation mechanism. The confluence areas of HCT-116 cells treated with various concentrations of compound 8d were detected by a live cell analysis imaging system.
HCT-116 cells were seeded in 6-well plates at a density of 300 cells per well and cultured overnight, and then treated with various concentrations of compound 8d for 24 h. Cells were continuously cultured for 9 days after drug withdrawal. Finally, 1% crystal violet was used to stain cells after fixing with 4% paraformaldehyde, and the visible colonies were recorded by the microscope and counted manually using imageJ.

HCT-116 cells [5] = test: TUNEL assay; type: cell-based, human; conditions: 5 µM, 72 h
Procedure: as §1
TdT-UTP nick end-labelling (TUNEL) assay was used to detect the apoptotic cells by in situ cell death detection kit (Roche, Germany) according to the manufacturer's instruction. Briefly, HCT-116 cells were seeded on coverslips and cultured overnight, following treatment with compound 8d (5 µM) for 72 h, then fixed with 4% paraformaldehyde for 30 min and permeabilized with 0.1% Triton X-100 for 2 min on ice. TUNEL reaction mixture was applied to the cells in an atmosphere for 1 h at 37°C in the dark, following with converter-POD and DAB substrate treatment. Samples were detected by a microscope (Olympus, Japan).

HCT-116 cells [6] = test: Live cell imaging of confluence area (Incucyte); type: cell-based, human
Procedure: as §2
Cells were seeded into 24-well plate (1 × 10^4 cells well^−1) for 24 h. Different concentrations of compound 8d were added to treat cells. Time-lapse photography of cells was recorded by Incucyte system. The confluences relative to total well area were calculated using a module of the cell confluence area analysing.

HCT-116 cells [7] = test: Annexin V staining in living cells; type: cell-based, human; conditions: 5 µM, 72 h
Procedure: as §1
Cells that seed on coverslips were treated with compound 8d (5 µM) for 72 h. Annexin V-FITC was used to target exposed phosphatidylserine which is a marker of early apoptosis. The nucleus of living cells was labelled by Hoechst 33258. The cells were observed by fluorescence microscope (Olympus, Japan).

[8] = MTS assay, 72 h treatment, mean ± s.d.

In the case of `CC(=O)OC[C@H]1OC(OC(C)=O)[C@H](n2cc(COCc3ccc(Cl)cc3)nn2)[C@@H](OC(C)=O)[C@@H]1OC(C)=O` (stereo partly drawn) [Compound 8f, 1-(1,3,4,6-Tetra-O-acetyl-D-glucopyranosyl)-4-(4-chlorobenzene)hydryloxymethyl-[1,2,3]-triazole], the IC50 (HCT-116 cells [1]; Homo sapiens, HCT-116, 72 h) is reported as 7.04 ± 0.06 µM, the selectivity (HCT-116 cells [1]) is reported as 3.18 and the IC50 (293T cells; Homo sapiens, HEK-293T, 72 h) is reported as 22.41 ± 0.05 µM.

For `OCc1ccccc1` [Compound 6b, reference compound], the IC50 (HCT-116 cells [1]; Homo sapiens, HCT-116, 72 h) was over 200 µM and the IC50 (293T cells; Homo sapiens, HEK-293T, 72 h) was over 200 µM.

`CC(=O)OC[C@H]1OC(OC(C)=O)[C@H](N)[C@@H](OC(C)=O)[C@@H]1OC(C)=O` (stereo partly drawn) [AOAG, reference compound] gave an IC50 (HCT-116 cells [1]; [8]) of over 200 µM and an IC50 (293T cells; [8]) of over 200 µM.

`CC(=O)OC[C@H]1OC(OC(C)=O)[C@H](n2cc(COCc3ccc(C(F)(F)F)cc3)nn2)[C@@H](OC(C)=O)[C@@H]1OC(C)=O` (stereo partly drawn) [8 h, 1-(1,3,4,6-Tetra-O-acetyl-D-glucopyranosyl)-4-(4-trifluoromethylbenzene)hydryloxymethyl-[1,2,3]-triazole] was tested, and the IC50 (HCT-116 cells [1]; Homo sapiens, HCT-116, 72 h) was 14.3 ± 2.18 µM, the selectivity (HCT-116 cells [1]) was 0.42 and the IC50 (293T cells; Homo sapiens, HEK-293T, 72 h) was 6.09 ± 0.42 µM.

Molecule `CC(=O)OC[C@H]1OC(OC(C)=O)[C@H](n2cc(COCc3ccc([N+](=O)[O-])cc3)nn2)[C@@H](OC(C)=O)[C@@H]1OC(C)=O` (stereo partly drawn) [Compound 8i, 1-(1,3,4,6-Tetra-O-acetyl-D-glucopyranosyl)-4-(4-nitrobenzene)hydryloxymethyl-[1,2,3]-triazole] has an IC50 (HCT-116 cells [1]; Homo sapiens, HCT-116, 72 h) of 17.3 ± 3.86 µM, a selectivity (HCT-116 cells [1]) of 0.46 and an IC50 (293T cells; Homo sapiens, HEK-293T, 72 h) of 8 ± 0.77 µM.

`CC(=O)OC[C@H]1OC(OC(C)=O)[C@H](n2cc(COCc3ccc(C)cc3)nn2)[C@@H](OC(C)=O)[C@@H]1OC(C)=O` (stereo partly drawn) [Compound 8c, 1-(1,3,4,6-Tetra-O-acetyl-D-glucopyranosyl)-4-(4-methylbenzene)hydryloxymethyl-[1,2,3]-triazole] showed an IC50 (HCT-116 cells [1]; Homo sapiens, HCT-116, 72 h) of 6.4 ± 0.2 µM, a selectivity (HCT-116 cells [1]) of 3.06 and an IC50 (293T cells; Homo sapiens, HEK-293T, 72 h) of 19.57 ± 0.13 µM.

`CC(=O)OC[C@H]1OC(OC(C)=O)[C@H](n2cc(COCc3ccc(Br)cc3)nn2)[C@@H](OC(C)=O)[C@@H]1OC(C)=O` (stereo partly drawn) [8 g, 1-(1,3,4,6-Tetra-O-acetyl-D-glucopyranosyl)-4-(4-bromobenzene)hydryloxymethyl-[1,2,3]-triazole] gave an IC50 (HCT-116 cells [1]; Homo sapiens, HCT-116, 72 h) of 4.55 ± 0.23 µM, a selectivity (HCT-116 cells [1]) of 2.56 and an IC50 (293T cells; Homo sapiens, HEK-293T, 72 h) of 11.7 ± 0.16 µM.

`CC(=O)OC[C@H]1OC(OC(C)=O)[C@H](N=[N+]=[N-])[C@@H](OC(C)=O)[C@@H]1OC(C)=O` (stereo partly drawn) [Compound 4, 1,3,4,6-Tetra-O-acetyl-2-azido-2-deoxy-D-glucose, reference compound] was tested, and the IC50 (HCT-116 cells [1]; Homo sapiens, HCT-116, 72 h) was 97.5 ± 1.58 µM, the selectivity (HCT-116 cells [1]) was 0.48 and the IC50 (293T cells; Homo sapiens, HEK-293T, 72 h) was 46.9 ± 2.93 µM.

For `O=c1[nH]cc(F)c(=O)[nH]1` [Compound 5-FU, 5-Fluorouracil, reference compound], the IC50 (HCT-116 cells [1]; Homo sapiens, HCT-116, 72 h) was 3.62 ± 1.22 µM, the selectivity (HCT-116 cells [1]) was 2.52 and the IC50 (293T cells; Homo sapiens, HEK-293T, 72 h) was 9.13 ± 1.63 µM.

`CC(=O)OC[C@H]1OC(OC(C)=O)[C@H](n2cc(COCc3ccc(F)cc3)nn2)[C@@H](OC(C)=O)[C@@H]1OC(C)=O` (stereo partly drawn) [Compound 8e, 1-(1,3,4,6-Tetra-O-acetyl-D-glucopyranosyl)-4-(4-fluorobenzene)hydryloxymethyl-[1,2,3]-triazole] gave an IC50 (HCT-116 cells [1]; Homo sapiens, HCT-116, 72 h) of 4.17 ± 0.06 µM, a selectivity (HCT-116 cells [1]) of 1.94 and an IC50 (293T cells; Homo sapiens, HEK-293T, 72 h) of 8.1 ± 0.08 µM.

In the case of `COc1ccc(COCc2cn([C@H]3C(OC(C)=O)O[C@H](COC(C)=O)[C@@H](OC(C)=O)[C@@H]3OC(C)=O)nn2)cc1` (stereo partly drawn) [Compound 8d, 1-(1,3,4,6-Tetra-O-acetyl-D-glucopyranosyl)-4-(4-methoxybenzene)hydryloxymethyl-[1,2,3]-triazole], the IC50 (HCT-116 cells [1]; Homo sapiens, HCT-116, 72 h) is reported as 2.88 ± 0.32 µM, the “cytotoxicity / antiproliferation activity towards HCT-116 (in words)” value (HCT-116 cells [1]; MTS assay) is reported as “comparable to 5-FU” and the selectivity (HCT-116 cells [1]) is reported as 10.89. For the same molecule, the “apoptotic DNA fragmentation, Hoechst 33258 staining” value (HCT-116 cells [2]) was “Apoptotic DNA fragmentation”, the “induction of apoptosis, Annexin V/PI assay (in words)” value (HCT-116 cells [3]) was “dose-dependently induced early apoptosis and late apoptosis” and the “colony formation of HCT-116” value (HCT-116 cells [4]) was “inhibited the colony formation of HCT-116 by a dose-dependent manner”. For the same molecule, the “DNA fragmentation, TUNEL assay” value (HCT-116 cells [5]) was “DNA fragmentation emerged”, the “proliferation of HCT-116 cells (confluence area)” value (HCT-116 cells [6]; 10 µM, for at least 72 h) was “completely inhibited” and the “proliferation of HCT-116 cells (confluence area), dose dependence” value (HCT-116 cells [6]; various concentrations) was “dose-dependently inhibited the proliferation”. For the same molecule, the “Annexin V-FITC staining on cellular membranes of living cells” value (HCT-116 cells [7]) was “Annexin-V-positive staining emerged on cellular membranes” and the IC50 (293T cells; Homo sapiens, HEK-293T, 72 h) was 31.35 ± 0.1 µM.

In the case of `CC(=O)OC[C@H]1OC(OC(C)=O)[C@H](n2cc(CO)nn2)[C@@H](OC(C)=O)[C@@H]1OC(C)=O` (stereo partly drawn) [Compound 8a, 1-(1,3,4,6-Tetra-O-acetyl-D-glucopyranosyl)-4-hydroxymethyl-[1,2,3]-triazole], the IC50 (HCT-116 cells [1]; Homo sapiens, HCT-116, 72 h) is reported as over 50 µM, the “cytotoxicity / antiproliferation activity towards HCT-116 (in words)” value (HCT-116 cells [1]; MTS assay) is reported as “fairly weak” and the IC50 (293T cells; Homo sapiens, HEK-293T, 72 h) is reported as over 50 µM.
